# Source: patent publication US6475509B1, “Covalent conjugates of sodium channel blockers and active compounds” (The University of North Carolina at Chapel Hill, priority 1999, dated 2002)
# Counter-ions that a name gives are not always drawn.
# Assays:
# [1] = test system: cultured airway epithelia; experiment: Confocal microscopy assay of drug uptake into cultured airway epithelia; format: cell-based; conditions: compound on apical surface of airway cultures, x-z confocal microscopy; relative to amiloride
# Procedure: FIG. 2 is an example of a confocal microscopy assay of drug uptake into cultured airway epithelia. In this assay, a compound (10^−4 M) is placed on the airway surface and fluorescence from the cells collected by x-z scanning confocal microscopy. The images shown on the left depict fluorescence in the cells 20 minutes after exposure to amiloride, benzamil and phenamil. Quantitation of the drug uptake is graphically illustrated on the right in terms of units of fluorescence.
# The second assay utilizes confocal microscopy of amiloride congener uptake: Virtually all amiloride-like molecules fluoresce in UV range. This property of these molecules was used to directly measure cellular uptake, using a x-z confocal microscope (Leica). […] Serial x-z images were obtained with time and the magnitude of fluorescence accumulating in the cell compartment quantitated and plotted. […] Two compounds from the synthesis series described above (CF-509 and CF-519) appear to fulfil this criterion. Compounds that were equipotent or greater with amiloride were tested for wash-out as described above. However, because wash-out may reflect both potency and cell uptake, the rate of accumulation of fluorescence (indexed to the specific fluorescence/emission spectrum of each compound) in the cell compartment as a function of time was also routinely measured. […]
# [2] = test system: airway epithelial Na^+ currents; experiment: Lumenal drug inhibition of airway epithelial Na+ currents, monolayers in Ussing chambers, with wash-out; format: cell-based, human or dog; conditions: for Effect of washout (3) 100% = Baseline: after maximal concentration (10^-4 M), lumenal bath exchanged three times with fresh KBR; for IC50 / Max Inhibition (%) from baseline: mucosal bath, voltage clamp; for IC50: half-log dose addition
# Procedure: In the second potency assay, airway epithelial monolayers mounted were in Ussing chambers: The principal assay consisted of tests of lumenal drug inhibition of airway epithelial Na^+ currents. Cells obtained from freshly excised human or dog airways were seeded onto SNAP-well Inserts (CoStar), cultured under air-liquid (ALI) conditions in hormonally defined media. The cells were assayed for Na^+ transport activity while bathed in Krebs bicarbonate Ringer (KBR) in the Ussing chambers under voltage clamp conditions. All test drug additions were to the mucosal bath with half-log dose addition protocols (10^−11 M-[…]). All drugs were made in standard stocks of 10^−2 M drug in DMSO. Eight preparations were typically run in parallel; two preparations/run were routinely used to assay amiloride and benzamil. After the maximal concentration (10^−4 M) was administered, the lumenal bath was exchanged three times with fresh KBR solution, which was defined as the “wash-out” effect. All data from the voltage clamps were collected via a computer interface and analyzed off-line.
# Dose-effect relationships for all compounds were considered and analyzed by the Prism 3.0 program. The IC50, maximal effective concentrations, and percent washout were calculated and compared to those of amiloride and benzamil as reference compounds.
# The first assay is referred to an assay of reversibility. Empirically, the percent of wash-out correlates with cellular uptake. The relationship is complex because reversibility is also a function of potency. However, reversibility is a quick and simple screen. The compounds that “reverse” best in this assay referenced to benzamil were also the least absorbed in the confocal assay, as described below.
structure (smiles),measurement,setting,value
"NC(=NCc1ccccc1)NC(=O)c1nc(Cl)c(N)nc1N [benzamil, 3,5-diamino-6-chloro-N-(benzylaminoaminomethylene) pyrazinecarboxamide, reference compound]",Cellular uptake (fluorescence accumulating in the cell compartment),[1],rapid
"N/C(=N\C(=O)c1nc(Cl)c(N)nc1N)NCc1ccc(CN/C(N)=N/C(=O)c2nc(Cl)c(N)nc2N)cc1 [CF-516, 1,4-Bis[(3,5-diamino-6-chloropyrazinoyl)guanidinol]xylylene Dihydrobromide]",Effect of washout (3) 100% = Baseline,[2],65%
same,IC50,[2],330 nM
same,Max Inhibition (%) from baseline,[2],90%
"Br.Br.N=C(NCc1cccc(CNC(=N)NC(=O)c2nc(Cl)c(N)nc2N)c1)NC(=O)c1nc(Cl)c(N)nc1N [CF-512, 1,3-Bis[(3,5-diamino-6-chloropyrazinovl)guanidino]xylylene Dihydrobromide]",Effect of washout (3) 100% = Baseline,[2],60%
same,IC50,[2],197 nM
same,Max Inhibition (%) from baseline,[2],92%
